Data set [1] has as its system Cell membrane. Put plainly: Induction of inner membrane permeabilization in Vibrio parahaemolyticus ATCC17802 assessed as increase in PI fluorescence intensity at 5 times MIC by propidium iodide penetration assay. To be noted: time <= 200.0 min. The format is cell membranes.
Data set [2] has as its system Staphylococcus aureus. Put plainly: Antimicrobial activity against clinical isolates Staphylococcus aureus by two fold broth microdilution method. The format is functional.
In data set [3] the test system is Vibrio parahaemolyticus. In words: Antimicrobial activity against Vibrio parahaemolyticus ATCC17802 by two fold broth microdilution method. The format is functional. (Broth dilution looks for growth in wells or tubes with falling amounts of substance.)
In another data set the test system is Bacillus cereus. In words: Antimicrobial activity against clinical isolates Bacillus cereus by two fold broth microdilution method. The format is functional.
The test system of data set [4] is Vibrio parahaemolyticus. In words: Bactericidal activity against Vibrio parahaemolyticus ATCC17802 assessed as killing rate at 0.5 X MIC by measuring time limit of detection by bacterial killing kinetic assay. In kind it is functional.
Data set [5] relates to Escherichia coli. Put plainly: Antimicrobial activity against Escherichia coli ATCC27622 by two fold broth microdilution method. The format is functional.
Data set [6] deals with Cell membrane. In words: Induction of inner membrane permeabilization in Vibrio parahaemolyticus ATCC17802 assessed as calcein leakage at 5 times MIC by calcein-AM leakage assay. In kind it is cell membranes. To be noted: time <= 200.0 min, TDE = time-dependent effect.
In data set [7] the test system is Staphylococcus aureus. In words: Antimicrobial activity against Staphylococcus aureus ATCC25923 by two fold broth microdilution method. In kind it is functional. To be noted: read-out: MIC.
Data set [8] has as its system Cell membrane. Put plainly: Induction of inner membrane permeabilization in Vibrio parahaemolyticus ATCC17802 at 5 times MIC measured upto 200 mins by propidium iodide penetration assay. The format is cell membranes.
In data set [9] the test system is Cell membrane. Put plainly: Induction of bacterial inner membrane permeabilization in Vibrio parahaemolyticus ATCC17802 assessed as calcein leakage from large unilamellar vesicles liposomes at 5 times MIC by fluorescence based microplate reader assay. The format is cell membranes. To be noted: time <= 60.0 min, TDE = time-dependent effect.
Data set [10] deals with Cell membrane. In words: Induction of outer membrane permeabilization in Vibrio parahaemolyticus ATCC17802 assessed as increase fluorescence intensity at 0.5 to 2 times of MIC by NPN uptake assay. In kind it is cell membranes. To be noted: time <= 15.0 min, TDE = time-dependent effect.
Data set [11] has as its system Vibrio parahaemolyticus. Put plainly: Induction of morphological changes in Vibrio parahaemolyticus ATCC17802 assessed as surface fibrosis incubated at 5 times MIC and measured after 15 mins by scanning electron microscopy based analysis. The format is functional, organism-based.
In data set [12] the test system is Cell membrane. In words: Induction of outer membrane permeabilization in Escherichia coli ATCC25722 assessed as increase fluorescence intensity at 0.5 to 2 times of MIC by NPN uptake assay. In kind it is cell membranes. To be noted: time <= 15.0 min, TDE = time-dependent effect.
The subject of data set [13] is Escherichia coli. Put plainly: In vivo antibacterial activity against Escherichia coli ATCC25722 infected in Balb/c mouse model assessed as reduction in bacterial CFU count on skin at 20 ug/ml incubated for 6 hrs post infection and measured after 2 hrs post compound treatment. The format is functional, organism-based. To be noted: dose 20.0 µg/ml, time 8.0 hrs.
In the next data set the test system is Peritoneal macrophage. In words: Cytotoxicity against mouse peritoneal macrophage cells incubated for 48 hrs by MTT assay. The format is toxicity, cell-based. The settings on record: dose < 250 µg/ml.
Data set [14] in a line: Effect on morphological changes in POPC/POPG (3:1) bilayer membrane assessed as formation of bulge aggregates by measuring the height of bulges at 2 ug/ml incubated for 40 mins under neutral pH and low ionic strength by atomic force microscopic analysis. The settings on record: Cell membrane, dose 2.0 µg/ml. In kind it is cell membranes.
In a further data set the test system is HaCaT. In words: Cytotoxicity against human HaCaT cells incubated for 48 hrs by MTT assay. The format is toxicity, cell-based. To be noted: dose < 250 µg/ml. On the technique in general: Tetrazolium assays rely on reduction of a dye to a coloured formazan, in cell work by metabolically active cells.
The subject of data set [15] is Cell membrane. Put plainly: Induction of outer membrane permeabilization in Vibrio parahaemolyticus ATCC17802 assessed as increase fluorescence intensity measured upto 15 mins by NPN uptake assay. The format is cell membranes.
For data set [16], the system named is Lipopolysaccharide (LPS). Put plainly: Binding affinity to Escherichia coli LPS assessed as dissociation constant measured upto 600 sec by surface plasmon resonance imaging method. In general terms: SPR reads the build-up and loss of mass on a sensor chip optically.
Data set [17] deals with Cell membrane. Put plainly: Induction of cytoplasmic membrane permeabilization in Vibrio parahaemolyticus […] assessed as calcein transmembrane diffusion into interior of gaint unilamellar vesicles by measuring time to equilibrium between inside and outside of vesicles at 2 ug/mL by confocal microscopy based calcein-AM leakage assay. In kind it is cell membranes. To be noted: dose 2.0 µg/ml.

Data set [18] has as its system Lipopolysaccharide (LPS). Put plainly: Binding affinity to Escherichia coli LPS assessed as LPS neutralizing activity measured after 5 mins by LPS neutralization assay.
In data set [19] the test system is Vibrio parahaemolyticus. In words: Induction of bacterial resistance in Vibrio parahaemolyticus ATCC17802 assessed as change in MIC treated over 30 serial passages measured after 24 hrs. In kind it is functional, organism-based.
The test system of data set [20] is Cell membrane. Put plainly: Binding affinity to Vibrio parahaemolyticus ATCC17802 cell membrane assessed as increase in fluorescence intensity measured after 120 mins by flow cytometry analysis (reference value: 1.88%). In kind it is cell membranes.
For data set [21], the system named is Vibrio parahaemolyticus. In words: Induction of morphological changes in Vibrio parahaemolyticus ATCC17802 assessed as cellular inclusion leakage incubated at 5 times MIC and measured after 15 mins by scanning electron microscopy based analysis. The format is functional, organism-based.
The test system of data set [22] is Escherichia coli. Put plainly: In vivo antibacterial activity against Escherichia coli ATCC25722 infected in Balb/c mouse model assessed as reduction in bacterial CFU count on skin at 20 ug/ml applied 4 hrs after infection and measured after 120 mins. In kind it is functional, organism-based. To be noted: dose 20.0 µg/ml.
The test system of data set [23] is Vibrio parahaemolyticus. Put plainly: Induction of morphological changes in Vibrio parahaemolyticus ATCC17802 assessed as massive cell collapse incubated at 5 times MIC and measured after 15 mins by scanning electron microscopy based analysis. The format is functional, organism-based.
Data set [24] can be described thus: Hemolytic activity in human erythrocytes measured after 30 mins. In kind it is toxicity, cell-based. To be noted: erythrocyte, 0.5 h.
Data set [25] concerns Cell membrane. Put plainly: Induction of bacterial inner membrane permeabilization in Vibrio parahaemolyticus ATCC17802 assessed as calcein leakage from large unilamellar vesicles liposomes at 5 times MIC measured upto 60 mins by fluorescence based microplate reader assay. The format is cell membranes.
Data set [26] concerns Cell membrane. In words: Induction of outer membrane permeabilization in Escherichia coli ATCC25722 assessed as increase fluorescence intensity measured upto 15 mins by NPN uptake assay. In kind it is cell membranes.
Data set [27] has as its system Lipopolysaccharide (LPS). Put plainly: Binding affinity to Escherichia coli LPS assessed as LPS neutralizing activity measured after 60 mins by LPS neutralization assay.
Data set [28] relates to Cell membrane. In words: Binding affinity to Vibrio parahaemolyticus ATCC17802 cell membrane assessed as increase in fluorescence intensity measured after 30 mins by flow cytometry analysis (reference value: 1.85%). In kind it is cell membranes.

We go through two molecules from ChEMBL document CHEMBL5236579, “Hydrophobicity Determines the Bacterial Killing Rate of α-Helical Antimicrobial Peptides and Influences the Bacterial Resistance Development” (J Med Chem, 2022).

The MIC is the lowest concentration found to suppress growth. The Kd is a measure of binding affinity in units of concentration.

Values after ≈ are worked out from the molar mass of the structure shown. Active and inactive are the calls of the source. The calls are words filed in the database; no cut-off is given here. Where a SMILES comes first, the peptide text is derived from it. Where only a bound is given, the exact number is not on record here.

In the case of `CC[C@H](C)[C@H](NC(=O)[C@H](CC(C)C)NC(=O)[C@H](CCCNC(=N)N)NC(=O)[C@H](CC(C)C)NC(=O)[C@H](CC(C)C)NC(=O)[C@H](CCCCN)NC(=O)[C@H](CCCCN)NC(=O)[C@H](Cc1ccccc1)NC(=O)[C@H](CC(C)C)NC(=O)CNC(=O)[C@@H](N)CC(C)C)C(=O)N[C@@H](CCCCN)C(=O)N[C@@H](CCCCN)C(=O)NCC(=O)N[C@@H](Cc1ccccc1)C(=O)N[C@@H](CCCCN)C(=O)N[C@@H](CC(C)C)C(=O)O` (H-LGLFKKLLRLIKKGFKL-OH), the outcome in the data set on Cell membrane [1] and in the data set with Cell membrane [8] was Active. For the same molecule, the MIC was found to be 9.38 µg/mL (≈ 4.65 µM) in the data set on Staphylococcus aureus [2]; 4.69 µg/mL (≈ 2.33 µM) against Vibrio parahaemolyticus [3]; 9.38 µg/mL (≈ 4.65 µM) with Bacillus cereus; 9.38 µg/mL (≈ 4.65 µM) against Escherichia coli [5]; 1.17 µg/mL (≈ 0.58 µM) in the data set with Staphylococcus aureus [7]. The Time in the data set on Vibrio parahaemolyticus [4] came to 30 min. In addition, the Activity result with Cell membrane [6] and in the data set with Cell membrane [9] was “Tde” throughout.

`CC[C@H](C)[C@H](NC(=O)[C@H](CC(C)C)NC(=O)[C@H](CCCNC(=N)N)NC(=O)[C@H](CC(C)C)NC(=O)[C@H](CC(C)C)NC(=O)[C@H](CCCCN)NC(=O)[C@H](CCCCN)NC(=O)[C@H](Cc1ccccc1)NC(=O)[C@H](CC(C)C)NC(=O)CNC(=O)[C@@H](N)CC(C)C)C(=O)N[C@@H](CC(C)C)C(=O)N[C@@H](CCCCN)C(=O)NCC(=O)N[C@@H](Cc1ccccc1)C(=O)N[C@@H](CCCCN)C(=O)N[C@@H](CC(C)C)C(=O)O` (H-LGLFKKLLRLILKGFKL-OH): the Activity result was “Tde” with Cell membrane [10]; “Tde” in the data set on Cell membrane [12]; “Dose-Dependent Effect” with Peritoneal macrophage; 20 nm in data set [14]; “Dose-Dependent Effect” in the data set with HaCaT; “Dose-Dependent Effect” in the data set on Cell membrane [15]. For the same molecule, the Activity with Cell membrane [20] is 88.1%; in data set [24] it was “Toxic”; with Cell membrane [26], “Dose-Dependent Effect”; in the data set with Cell membrane [6], “Tde”; in the data set with Cell membrane [28] it was 98.5%. Further, the result with Vibrio parahaemolyticus [11], in the data set on Cell membrane [1], in the data set with Escherichia coli [13], in the data set on Lipopolysaccharide (LPS) [18], in the data set on Vibrio parahaemolyticus [21] and with Escherichia coli [22] was Active. The outcome in the data set with Vibrio parahaemolyticus [23], with Cell membrane [25], in the data set on Lipopolysaccharide (LPS) [27] and in the data set on Cell membrane [8] was Active. In addition, the minimum inhibitory concentration (MIC) in the data set on Staphylococcus aureus [2] worked out at 9.38 µg/mL (≈ 4.69 µM); against Vibrio parahaemolyticus [3], 4.69 µg/mL (≈ 2.34 µM); against Bacillus cereus, 9.38 µg/mL (≈ 4.69 µM); in the data set with Escherichia coli [5], 9.38 µg/mL (≈ 4.69 µM); in the data set on Staphylococcus aureus [7], 1.17 µg/mL (≈ 0.585 µM). The Kd in the data set on Lipopolysaccharide (LPS) [16] came to 82.1 µM. For the same molecule, in the data set on Cell membrane [17], the TIME was < 0.25 h. Moreover, the outcome in the data set with Vibrio parahaemolyticus [19] was inactive. For the same molecule, the Time in the data set with Vibrio parahaemolyticus [4] stood at 15 min.
